# According to PMC8026785, “The pharmacokinetics of [^18F]UCB-H revisited in the healthy non-human primate brain” (EJNMMI Research, 2021):
# Several values for one entry are separate records, joined by “and”; a condition that tells them apart may be missing. Equal values may be shown once.
# Biological target: T1, SV2A (Macaca fascicularis, UniProt Q4R4X3)
# T1 construct: The current study evaluates [^18F]UCB-H pharmacokinetics in healthy NHPs; from tissue; host or cells: brain of living healthy cynomolgus monkeys (in vivo PET)
# T1 sequence (Q4R4X3 whole entry): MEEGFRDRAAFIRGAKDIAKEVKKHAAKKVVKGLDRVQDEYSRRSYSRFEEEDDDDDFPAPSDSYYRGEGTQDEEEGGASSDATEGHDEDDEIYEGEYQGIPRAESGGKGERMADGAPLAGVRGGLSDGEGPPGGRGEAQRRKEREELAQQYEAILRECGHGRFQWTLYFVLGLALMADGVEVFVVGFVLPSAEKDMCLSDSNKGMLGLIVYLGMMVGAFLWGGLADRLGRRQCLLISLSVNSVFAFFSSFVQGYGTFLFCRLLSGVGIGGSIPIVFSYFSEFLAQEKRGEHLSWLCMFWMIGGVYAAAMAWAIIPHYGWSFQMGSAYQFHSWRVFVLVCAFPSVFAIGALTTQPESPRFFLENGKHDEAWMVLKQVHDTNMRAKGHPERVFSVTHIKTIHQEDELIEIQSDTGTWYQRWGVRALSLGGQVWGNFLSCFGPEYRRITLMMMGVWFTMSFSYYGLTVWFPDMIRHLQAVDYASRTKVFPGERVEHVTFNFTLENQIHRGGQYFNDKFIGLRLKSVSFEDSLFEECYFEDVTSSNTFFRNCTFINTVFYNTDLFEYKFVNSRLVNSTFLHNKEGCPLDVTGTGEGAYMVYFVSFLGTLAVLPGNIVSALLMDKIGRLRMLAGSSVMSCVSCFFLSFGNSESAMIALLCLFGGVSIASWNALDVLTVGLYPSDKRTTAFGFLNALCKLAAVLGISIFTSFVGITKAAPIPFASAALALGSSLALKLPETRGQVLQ
# Assay: Brain PET kinetic modelling (1TCM, 2TCM, 2TCM-c, Logan), test-retest
# Assay type: in vivo, cynomolgus monkeys (Macaca fascicularis)
# Protocol: All four non-human primates (NHP) underwent a 2-h (2 h) test and retest PET scan; two NHP underwent an additional 4-h (4 h) retest PET scan. Three NHP underwent one 4-h (4 h) displacement PET scan. Arterial blood sampling was performed during test and retest scans with PET imaging spaced by at least 3 weeks between each scan. To this end, the femoral artery opposite to the saphenous vein used for radioligand injection was cannulated. For the 2-h (2 h) scans, we collected in total 28 blood samples of 1 mL: 16 samples during the first 5 min followed by […] every 5 min and […] every 10 min. For the 4 h scans, we collected an additional 6 samples every 20 min during the last two hours (34 samples in total). Larger samples (2 – 3 mL) were collected at 5, 15, 30, 60, 90, 120 min (2 h) and at 180, 240 min (4 h) for metabolite analysis. Displacement of [^18F]UCB-H was done by intravenous (IV) administration 90 min after [^18F]UCB-H injection of a bolus of 30 mg/kg LEV, or of 80 µg/kg (≈250 nmol/kg) or 5 mg/kg (≈15 µmol/kg) of cold [^19F]-UCB-H. Full experimental design of all NHP is outlined in Additional file 1: Table 1.
# PET imaging was performed on the microPET FOCUS220 (Siemens) under standard anesthesia and monitoring procedures. Data acquisition started with the IV bolus injection of [^18F]UCB-H (32.9 ± 1.0 MBq/kg, 0.35 ± 0.07 µg/kg). Dynamic PET images were reconstructed using standard OSEM-2D algorithms while correcting for radioactive decay, scatter, attenuation and detectors inhomogeneity, which were measured prior to PET scanning using respectively ^57Co and ^68Ge external sources.
# PET image analysis was performed using PMOD software version 3.8 (PMOD Technologies Ltd., Zurich, Suisse). After individual co-registration of PET-MR images, a cynomolgus atlas published by Ballanger and coworkers was normalized to PET images to extract time activity curves in different brain regions. Volumes of interest (VOI) were cerebral white matter (16.7 cm^3), striatum (0.24 cm^3), thalamus (0.89 cm^3), cerebellum (3.83 cm^3), frontal—(2.50 cm^3), parietal—(5.35 cm^3), and temporal (8.22 cm^3) cortex, and whole brain (72.2 cm^3) as a composite region of all regions in the atlas. [^18F]UCB-H pharmacokinetics were evaluated by analyzing the time activity curves of the test- and retest scans using 1- and 2-tissue compartment models (unconstrained and constrained with global K1/k2 coupled fit across all regions, further referred to as 2TCM and 2TCM-c), and Logan graphical analysis with a fixed t* at 60 min [33] using the arterial plasma input function corrected for radio-metabolites to derive the volume of distribution in each region. Percentage standard error (%SE) was estimated from the theoretical parameter covariance matrix. Only reliable estimates (%SE less than 25%) were included in the current analyses. For the three drug studies, percent displacement of the total activity in the whole brain was estimated relative to an average baseline constructed from the two 4 h baseline studies. Briefly, Standardized Uptake Value (SUV) time activity curves (TACs) were calculated for the two baseline and the three displacement studies. Then, each curve was normalized to the SUV at t = 90 min, corresponding to the timeframe immediately before the administration of the drugs in the displacement studies. Baseline curves were averaged and the percent displacement of total activity was calculated as (baseline-displacement)/baseline at a given time post drug administration (see “Results”).
# Statistical analysis was performed using R software (version 3.3.1.). Plasma, intact parent fraction and time activity curves were statistically compared between subjects using a one-factor variance analysis. Absolute Test–Retest variability (aTRV) of PET quantification parameters was calculated as ABS(test—retest) / AVERAGE(test, retest). […]
# [1] = Temporal Cortex, Retest, individual NHP
# [2] = Temporal Cortex, Test, individual NHP
# [3] = Thalamus, Retest, individual NHP
smiles,measurement,setting,value
O=C1C[C@H](c2cc(F)c(F)c(F)c2)CN1Cc1ccncc1[18F] [[^18F]UCB-H],VT (Logan (t* = 60)),"Striatum, Retest, mean",15.7 mL/cm^3
same,k3/k4 (BPND) (2TCM-c),"Striatum, Retest, mean",1.12
same,K1 (2TCM),"Striatum, Test, individual NHP",0.24 ml/cm^3 /min and 0.25 ml/cm^3 /min and 0.51 ml/cm^3 /min and 0.63 ml/cm^3 /min
same,K1 (2TCM-c),"Striatum, Test, individual NHP",0.24 ml/cm^3 /min and 0.26 ml/cm^3 /min and 0.53 ml/cm^3 /min and 0.63 ml/cm^3 /min
same,K1/k2 (2TCM),"Striatum, Test, individual NHP",10.32 ml/cm^3 and 7.75 ml/cm^3 and 12.01 ml/cm^3 and 15.06 ml/cm^3
same,K1/k2 (2TCM-c),"Striatum, Test, individual NHP",7.86 ml/cm^3 and 4.35 ml/cm^3 and 8.22 ml/cm^3 and 10.99 ml/cm^3
same,VT (1TCM),"Striatum, Test, individual NHP",12.87 ml/cm^3 and 11.31 ml/cm^3 and 16.41 ml/cm^3 and 16.40 ml/cm^3
same,VT (2TCM),"Striatum, Test, individual NHP",13.09 ml/cm^3 and 17.60 ml/cm^3
same,VT (2TCM-c),"Striatum, Test, individual NHP",14.78 ml/cm^3 and 11.92 ml/cm^3 and 16.73 ml/cm^3 and 16.50 ml/cm^3
same,VT (Logan),"Striatum, Test, individual NHP",15.21 ml/cm3 and 12.85 ml/cm3 and 17.23 ml/cm3 and 17.97 ml/cm3
same,k3/k4 (2TCM),"Striatum, Test, individual NHP",0.69
same,k3/k4 (2TCM-c),"Striatum, Test, individual NHP",1.74 and 1.24 and 0.50
same,VT (1TCM),"Striatum, Test, mean",14.2 mL/cm^3
same,VT (2TCM),"Striatum, Test, mean",15.3 mL/cm^3
same,VT (2TCM-c),"Striatum, Test, mean",15.0 mL/cm^3
same,VT (Logan (t* = 60)),"Striatum, Test, mean",15.8 mL/cm^3
same,k3/k4 (BPND) (2TCM-c),"Striatum, Test, mean",1.16
same,K1 (2TCM),[1],0.31 ml/cm^3 /min and 0.45 ml/cm^3 /min and 0.29 ml/cm^3 /min and 0.36 ml/cm^3 /min
same,K1 (2TCM-c),[1],0.32 ml/cm^3 /min and 0.48 ml/cm^3 /min and 0.30 ml/cm^3 /min and 0.36 ml/cm^3 /min
same,K1/k2 (2TCM),[1],11.50 ml/cm^3 and 9.63 ml/cm^3 and 11.78 ml/cm^3
same,K1/k2 (2TCM-c),[1],7.25 ml/cm^3 and 4.64 ml/cm^3 and 9.07 ml/cm^3 and 10.70 ml/cm^3
same,VT (1TCM),[1],11.57 ml/cm^3 and 13.96 ml/cm^3 and 13.50 ml/cm^3 and 13.13 ml/cm^3
same,VT (2TCM),[1],13.97 ml/cm^3 and 13.95 ml/cm^3
same,VT (2TCM-c),[1],11.57 ml/cm^3 and 14.06 ml/cm^3 and 13.53 ml/cm^3
same,VT (Logan),[1],11.91 ml/cm3 and 13.90 ml/cm3 and 16.34 ml/cm3 and 13.54 ml/cm3
same,k3/k4 (2TCM-c),[1],0.60 and 2.03 and 0.29
same,K1 (2TCM),[2],0.17 ml/cm^3 /min and 0.23 ml/cm^3 /min and 0.37 ml/cm^3 /min and 0.44 ml/cm^3 /min
same,K1 (2TCM-c),[2],0.17 ml/cm^3 /min and 0.24 ml/cm^3 /min and 0.37 ml/cm^3 /min and 0.44 ml/cm^3 /min
same,K1/k2 (2TCM),[2],11.10 ml/cm^3 and 7.16 ml/cm^3 and 8.97 ml/cm^3 and 12.30 ml/cm^3
same,K1/k2 (2TCM-c),[2],7.86 ml/cm^3 and 4.35 ml/cm^3 and 8.22 ml/cm^3 and 10.99 ml/cm^3
same,VT (1TCM),[2],12.66 ml/cm^3 and 10.58 ml/cm^3 and 14.25 ml/cm^3 and 13.95 ml/cm^3
same,VT (2TCM),[2],12.30 ml/cm^3 and 15.50 ml/cm^3
same,VT (2TCM-c),[2],17.46 ml/cm^3 and 11.23 ml/cm^3 and 14.95 ml/cm^3 and 15.47 ml/cm^3
same,VT (Logan),[2],14.13 ml/cm3 and 11.99 ml/cm3 and 15.12 ml/cm3 and 15.35 ml/cm3
same,k3/k4 (2TCM),[2],0.72
same,k3/k4 (2TCM-c),[2],1.00 and 1.58 and 0.41
same,ICC of Logan (t* = 60) VT,Temporal cortex,0.61
same,aTRV of 2TCM-c VT,Temporal cortex,25%
same,aTRV of Logan (t* = 60) VT,Temporal cortex,13%
same,VT (1TCM),"Temporal cortex, Retest, mean",13.0 mL/cm^3
same,VT (2TCM),"Temporal cortex, Retest, mean",14.0 mL/cm^3
same,VT (2TCM-c),"Temporal cortex, Retest, mean",13.1 mL/cm^3
same,VT (Logan (t* = 60)),"Temporal cortex, Retest, mean",13.9 mL/cm^3
same,k3/k4 (BPND) (2TCM-c),"Temporal cortex, Retest, mean",0.97
same,VT (1TCM),"Temporal cortex, Test, mean",12.9 mL/cm^3
same,VT (2TCM),"Temporal cortex, Test, mean",13.9 mL/cm^3
same,VT (2TCM-c),"Temporal cortex, Test, mean",14.8 mL/cm^3
same,VT (Logan (t* = 60)),"Temporal cortex, Test, mean",14.1 mL/cm^3
same,k3/k4 (BPND) (2TCM-c),"Temporal cortex, Test, mean",1.00
same,ICC of Logan (t* = 60) VT,Thalamus,0.61
same,aTRV of 2TCM-c VT,Thalamus,18%
same,aTRV of Logan (t* = 60) VT,Thalamus,12%
same,K1 (2TCM),[3],0.36 ml/cm^3 /min and 0.51 ml/cm^3 /min and 0.34 ml/cm^3 /min and 0.38 ml/cm^3 /min
same,K1 (2TCM-c),[3],0.37 ml/cm^3 /min and 0.54 ml/cm^3 /min and 0.36 ml/cm^3 /min and 0.38 ml/cm^3 /min
same,K1/k2 (2TCM),[3],12.79 ml/cm^3 and 11.34 ml/cm^3 and 12.88 ml/cm^3
same,K1/k2 (2TCM-c),[3],7.25 ml/cm^3 and 4.64 ml/cm^3 and 9.07 ml/cm^3 and 10.70 ml/cm^3
same,VT (1TCM),[3],11.85 ml/cm^3 and 13.85 ml/cm^3 and 14.73 ml/cm^3 and 13.28 ml/cm^3
same,VT (2TCM),[3],11.88 ml/cm^3 and 14.03 ml/cm^3
same,VT (2TCM-c),[3],11.88 ml/cm^3 and 13.92 ml/cm^3 and 17.03 ml/cm^3 and 13.98 ml/cm^3
same,VT (Logan),[3],12.16 ml/cm3 and 14.10 ml/cm3 and 17.41 ml/cm3 and 13.62 ml/cm3
